Broadly, the melting point is the temperature, or range, at which the solid turns liquid.

`CCCCN1CC(=O)N2[C@@H](c3ccc(C#N)cc3)c3[nH]c4ccccc4c3C[C@@H]2C1=O` (relative stereo) [Example 71, Cis-2,3,6,7,12,12a-Hexahydro-2-butyl-6-(4cyanophenyl)-pyrazino[2′,1′:6,1]pyrido[3,4-b]indole-1,4-dione] registered a melting point of 246 °C.

Compound `CCc1ccc([C@H]2c3[nH]c4ccccc4c3C[C@@H]3C(=O)N(C(C)C)CC(=O)N23)cc1` (relative stereo) [Example 72, Cis-2,3,6,7,12,12a-Hexahydro-6-(4-ethylphenyl)-2-isopropyl-pyrazino[2′,1′:6,1]pyrido[3,4-b]indole-1,4-dione] gave a melting point of 130 °C.

For the compound `CCc1ccc([C@H]2c3[nH]c4ccccc4c3C[C@@H]3C(=O)N(CC4CC4)CC(=O)N23)cc1` (relative stereo) [Example 73, Cis-2,3,6,7,12,12a-Hexahydro-6-(4-ethylphenyl)-2-cyclopropylmethyl-pyrazino[2′,1′:6,1]pyrido[3,4-b]indole-1,4-dione], the melting point was found to be 160 °C.

`CCCCN1CC(=O)N2[C@@H](c3ccc([N+](=O)[O-])cc3)c3[nH]c4ccccc4c3C[C@@H]2C1=O` (relative stereo) [Example 75, Cis-2,3,6,7,12,12a-Hexahydro-2-butyl-6-(4-nitrophenyl)-pyrazino[2′,1′:6,1]pyrido[3,4-b]indole-1,4-dione] displayed a melting point of 182 °C.

In turn, `CN1CC(=O)N2[C@@H](c3cccnc3)c3[nH]c4ccccc4c3C[C@@H]2C1=O` (relative stereo) [Example 77, Cis-2,3,6,7,12,12a-Hexahydro-2-methyl-6-(3-pyridyl)-pyrazino[2′,1′:6,1]pyrido[3,4-b]indole-1,4-dione] came in with a melting point of 312 °C.

In turn, `Cc1ccc2[nH]c3c(c2c1)C[C@@H]1C(=O)N(C)CC(=O)N1[C@H]3c1ccc2c(c1)OCO2` (relative stereo) [Example 96, Cis-2,3,6,7,12,12a-Hexahydro-2,10-dimethyl-6-(3,4-methylenedioxyphenyl)-pyrazino[2′,1′:6,1]pyrido[3,4-b]indole-1,4-dione] gave a melting point of 275 °C.

Take `CCCCN1CC(=O)N2[C@@H](c3ccc(N)cc3)c3[nH]c4ccccc4c3C[C@@H]2C1=O` (relative stereo) [Example 98, Cis-2,3,6,7,12,12a-Hexahydro-6-(4-aminophenyl)-2-butyl-pyrazino[2′,1′:6,1]pyrido[3,4-b]indole-1,4-dione]: the melting point came out at 192 °C.

`CCCCN1CC(=O)N2[C@@H](c3ccc(NC(C)=O)cc3)c3[nH]c4ccccc4c3C[C@@H]2C1=O` (relative stereo) [Example 99, Cis-2,3,6,7,12,12a-Hexahydro-6-(4-acetamidophenyl)-2-butyl-pyrazino[2′,1′:6,1]pyrido[3,4-b]indole-1,4-dione] came in with a melting point of 246 °C.

With `CCc1ccc([C@H]2c3[nH]c4ccccc4c3C[C@@H]3C(=O)N(C)CC(=O)N23)cc1` (relative stereo) [Example 112, Cis-2,3,6,7,12,12a-Hexahydro-6-(4-ethylphenyl)-2-methyl-pyrazino[2′,1′:6,1]pyrido[3,4-b]indole-1,4-dione], the melting point was 254 °C.

In the case of `CCCCN1CC(=O)N2[C@H](c3ccc4c(c3)OCO4)c3[nH]c4ccccc4c3C[C@@H]2C1=O` [Example 80, (6R,12aR)-2,3,6,7,12,12a-Hexahydro-2-butyl-6(3,4-methylenedioxyphenyl)-pyrazino[2′,1′:6,1]pyrido[3,4-b]indole-1,4-dione], the melting point fell in the range of 209 to 210 °C.

As for `CC(C)CN1CC(=O)N2[C@H](c3ccc4c(c3)OCO4)c3[nH]c4ccccc4c3C[C@@H]2C1=O` [Example 81, (6R,12aR)-2,3,6,7,12,12a-Hexahydro-2-isobutyl-6-(3,4-methylenedioxyphenyl)-pyrazino[2′,1′:6,1]pyrido[3,4-b]indole-1,4-dione], the melting point lay within 227 to 228 °C.

As to `O=C1[C@H]2Cc3c([nH]c4ccccc34)[C@@H](c3ccc4c(c3)OCO4)N2C(=O)CN1CC1CCCCC1` [Example 83, (6R,12aR)-2,3,6,7,12,12a-Hexahydro-6-(3,4-methylenedioxyphenyl)-2-cyclohexylmethyl-pyrazino[2′,1′:6,1]pyrido[3,4-b]indole-1,4-dione], the melting point amounted to 209 °C.

`COc1ccc([C@@H]2c3[nH]c4ccccc4c3C[C@@H]3C(=O)N(CC4CC4)CC(=O)N23)cc1Cl` [Example 87, (6R,12aR)-2,3,6,7,12,12a-Hexahydro-6-(3-chloro-4-methoxyphenyl)-2-cyclopropylmethyl-pyrazino[2′,1′:6,1]pyrido[3,4-b]indole-1,4-dione] came in with a melting point of 218 to 219 °C.

`COc1ccc([C@@H]2c3[nH]c4ccccc4c3C[C@@H]3C(=O)N(C4CCCC4)CC(=O)N23)cc1Cl` [Example 88, (6R,12aR)-2,3,6,7,12,12a-Hexahydro-2-cyclopentyl6-(3-chloro-4-methoxyphenyl)-pyrazino[2′,1′:6,1]pyrido[3,4-b]indole-1,4-dione] registered a melting point of 260 to 262 °C.

On to `CN1CC(=O)N2[C@H](c3ccc4c(c3)CCC4)c3[nH]c4ccccc4c3C[C@@H]2C1=O` [Example 93, (6R,12aR)-2,3,6,7,12,12a-Hexahydro-6-(5-indanyl)-2-methyl-pyrazino[2′,1′:6,1]pyrido[3,4-b]indole-1,4-dione], for which the melting point is 262 °C.

The compound `COc1ccc(CN2CC(=O)N3[C@H](c4ccc5c(c4)OCO5)c4[nH]c5ccccc5c4C[C@@H]3C2=O)cc1OC` [Example 97, (6R,12aR)-2,3,6,7,12,12a-Hexahydro-2-(3,4-dimethoxybenzyl)-6-(3,4-methylenedioxyphenyl)-pyrazino[2′,1′:6,1]pyrido[3,4-b]indole-1,4-dione] yielded a melting point of 224 to 226 °C.

For the compound `C#CCN1CC(=O)N2[C@H](c3ccc4c(c3)OCO4)c3[nH]c4ccccc4c3C[C@@H]2C1=O` [Example 102, (6R,12aR)-2,3,6,7,12,12a-Hexahydro-6-(3,4-methylenedioxyphenyl)-2-(2-propynyl)-pyrazino[2′,1′:6,1]pyrido[3,4-b]indole-1,4-dione], the melting point was 271 °C.

Regarding `COc1ccc([C@@H]2c3[nH]c4ccccc4c3C[C@@H]3C(=O)N(C)CC(=O)N23)cc1` [Example 107, (6R,12aR)-2,3,6,7,12,12a-Hexahydro-6-(4-methoxyphenyl)-2-methyl-pyrazino[2′,1′:6,1]pyrido[3,4-b]indole-1,4-dione], the melting point lay in the range of 285 to 288 °C.

`CCN1CC(=O)N2[C@H](c3ccc(OC)cc3)c3[nH]c4ccccc4c3C[C@@H]2C1=O` [Example 108, (6R,12aR)-2,3,6,7,12,12a-Hexahydro-2-ethyl-6-(4-methoxyphenyl)-pyrazino[2′,1′:6,1]pyrido[3,4-b]indole-1,4-dione] registered a melting point of 277 °C.

As to `C[C@@H]1C(=O)N2[C@H](c3ccc4c(c3)OCO4)c3[nH]c4ccccc4c3C[C@@H]2C(=O)N1C` [Example 116, (3R,6R,12aR)-2,3,6,7,12,12a-Hexahydro-2,3-dimethyl-6-(3,4-methylenedioxyphenyl)-pyrazino[2′,1′:6,1]pyrido[3,4-b]indole-1,4-dione], the melting point is 219 to 220 °C.

For the origin of these results see patent US6369059B1, “Tetracyclic derivatives, process of preparation and use” (ICOS Corporation, priority 1994, dated 2002).
